# Assays:
# Details in all cases: lowest tested rate giving 80% or greater inhibition, approx. 14 days after planting and treating, greenhouse
# [1] = tested on: ABUTH; experiment: Pre-emergence herbicidal activity on ABUTH (velvetleaf); assay type: in vivo, Abutilon theophrasti
# Method in brief: (§1)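 GR80 values come from percent inhibition relative to untreated plants, rated roughly 14 days after planting and treating, with rates up to typically 1000 g/ha. Compound was sprayed onto the soil over freshly covered seeds as a dilution in 50:50 acetone/water; pots kept in greenhouse at 30/21° C. day/night after 0.64 cm overhead watering.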
# [2] = tested on: SOLNI; experiment: Pre-emergence herbicidal activity on SOLNI (black nightshade); assay type: in vivo, Solanum nigrum
# Method in brief: as §1
# [3] = tested on: AMARE; experiment: Pre-emergence herbicidal activity on AMARE (redroot pigweed); assay type: in vivo, Amaranthus retroflexus
# Method in brief: as §1
# [4] = tested on: DATST; experiment: Pre-emergence herbicidal activity on DATST (jimsonweed); assay type: in vivo, Datura stramonium
# Method in brief: as §1
# [5] = tested on: CHEAL; experiment: Pre-emergence herbicidal activity on CHEAL (common lambsquarters); assay type: in vivo, Chenopodium album
# Method in brief: as §1
# [6] = tested on: CONAR; experiment: Pre-emergence herbicidal activity on CONAR (field bindweed); assay type: in vivo, Convolvulus arvensis
# From the text: (§2) All such uses, and the biological activity enabling such uses, are embraced by the term “herbicidal” herein. Tables 15 and 16 summarize results of tests conducted as described below to determine the pre-emergence herbicidal activity, in the form of a GR80 value, of illustrative compounds of this invention. […] Where herbicidal activity was evident but 80% inhibition was not achieved at the highest rate tested (typically 1000 g/ha), an asterisk (*) is shown in the following tables. Herbicidal activity evident in the form of symptoms of phytotoxicity, in the absence of at least 80% inhibition at any rate, is indicated in the tables by “phyto”. A blank cell in the following tables indicates no herbicidal or phytotoxic response at any rate tested.
# (§3) The pre-emergence tests were conducted by the following procedure. Topsoil was sieved to pass through a 1.27 cm screen. Fertilizer was added to the topsoil and the mixture was then sterilized by heating. The topsoil mixture was placed in a pot and compacted to a depth of 1.0 to 1.25 cm from the top of the pot. Seeds of each of several monocotyledonous and dicotyledonous annual plant species were placed on top of the soil. Additional soil was subsequently placed over the seeds to level-fill the pot. A known amount of each test compound dissolved or suspended in an appropriate organic solvent was diluted with a 50:50 mix of acetone and water and applied to the surface of the soil. After treatment the plants were placed in a greenhouse with a 30/21° C. day/night temperature regime where they received 0.64 cm of overhead irrigation. All subsequent watering consisted of a light overhead mist and/or subirrigation as needed for germination and growth.
# (§4) Approximately 14 days after planting and treating, the plants were observed and herbicidal efficacy recorded as percent inhibition by comparison with untreated plants.
# (§5) The plant species usually regarded as weeds which were utilized in the tests are identified in the tables below according to the following legend, in which “d” indicates a dicotyledonous species and “m” a monocotyledonous species. All monocotyledonous species included in the tests herein are grasses.
# [7] = tested on: POROL; experiment: Pre-emergence herbicidal activity on POROL (common purslane); assay type: in vivo, Portulaca oleracea
# Method in brief: as §1
# [8] = tested on: CIRAR; experiment: Pre-emergence herbicidal activity on CIRAR (canada thistle, seedling); assay type: in vivo, Cirsium arvense
# Method in brief: as §1
# [9] = tested on: ECHCG; experiment: Pre-emergence herbicidal activity on ECHCG (barnyardgrass); assay type: in vivo, Echinochloa crus-galli
# From the text: as §2, §3, §4, §5
# [10] = tested on: PANMI; experiment: Pre-emergence herbicidal activity on PANMI (wild proso millet); assay type: in vivo, Panicum miliaceum
# Method in brief: as §1
# [11] = tested on: SORHA; experiment: Pre-emergence herbicidal activity on SORHA (johnsongrass, seedling); assay type: in vivo, Sorghum halepense
# Method in brief: as §1
# [12] = tested on: SETFA; experiment: Pre-emergence herbicidal activity on SETFA (giant foxtail); assay type: in vivo, Setaria faberi
# Method in brief: as §1
# [13] = tested on: PANDI; experiment: Pre-emergence herbicidal activity on PANDI (fall panicum); assay type: in vivo, Panicum dichotomiflorum
# Method in brief: as §1
# [14] = tested on: SORVU; experiment: Pre-emergence herbicidal activity on SORVU (shattercane); assay type: in vivo, Sorghum vulgare
# From the text: as §2, §3, §4, §5
# [15] = tested on: BRAPP; experiment: Pre-emergence herbicidal activity on BRAPP (broadleaf signalgrass); assay type: in vivo, Brachiaria platyphylla
# Method in brief: as §1
# [16] = tested on: DIGSA; experiment: Pre-emergence herbicidal activity on DIGSA (large crabgrass); assay type: in vivo, Digitaria sanguinalis
# Method in brief: as §1
Compound,Pre-emergence activity (GR80) on ABUTH [1],Pre-emergence activity (GR80) on SOLNI [2],Pre-emergence activity (GR80) on AMARE [3],Pre-emergence activity (GR80) on DATST [4],Pre-emergence activity (GR80) on CHEAL [5],Pre-emergence activity (GR80) on CONAR [6],Pre-emergence activity (GR80) on PORAL [7],Pre-emergence activity (GR80) on CIRAR [8],Pre-emergence activity (GR80) on ECHCG [9],Pre-emergence activity (GR80) on PANMI [10],Pre-emergence activity (GR80) on SORHA [11],Pre-emergence activity (GR80) on SETFA [12],Pre-emergence activity (GR80) on PANDI [13],Pre-emergence activity (GR80) on SORVU [14],Pre-emergence activity (GR80) on BRAPP [15],Pre-emergence activity (GR80) on DIGSA [16]
CC(CNC(=O)c1cccc(C(F)(F)F)c1)NC(=O)c1cccc(C(F)(F)F)c1Cl (centres unmarked) [Example 14],250 g/ha,125 g/ha,125 g/ha,64 g/ha,64 g/ha,125 g/ha,125 g/ha,64 g/ha,1000 g/ha,500 g/ha,500 g/ha,250 g/ha,250 g/ha,phyto,500 g/ha,125 g/ha
Cc1c(F)cccc1C(=O)NC(C)CNC(=O)c1cccc(C(F)(F)F)c1 (centres unmarked) [Example 38],125 g/ha,250 g/ha,32 g/ha,125 g/ha,64 g/ha,250 g/ha,32 g/ha,125 g/ha,1000 g/ha,250 g/ha,500 g/ha,250 g/ha,250 g/ha,"* (Where herbicidal activity was evident but 80% inhibition was not achieved at the highest rate tested (typically 1000 g/ha), an asterisk (*) is shown)",250 g/ha,125 g/ha
COc1c(F)cccc1C(=O)NC(C)CNC(=O)c1cccc(C(F)(F)F)c1 (centres unmarked) [Example 40],phyto,phyto,750 g/ha,1000 g/ha,750 g/ha,phyto,"* (Where herbicidal activity was evident but 80% inhibition was not achieved at the highest rate tested (typically 1000 g/ha), an asterisk (*) is shown)",,phyto,phyto,phyto,1000 g/ha,750 g/ha,phyto,"* (Where herbicidal activity was evident but 80% inhibition was not achieved at the highest rate tested (typically 1000 g/ha), an asterisk (*) is shown)",
Cc1ccc(Cl)cc1C(=O)NC(C)CNC(=O)c1cccc(C(F)(F)F)c1 (centres unmarked) [Example 47],250 g/ha,125 g/ha,64 g/ha,250 g/ha,64 g/ha,750 g/ha,125 g/ha,125 g/ha,phyto,250 g/ha,750 g/ha,250 g/ha,250 g/ha,phyto,500 g/ha,125 g/ha
CC(CNC(=O)c1cccc(C(F)(F)F)c1)NC(=O)c1cccc(OC(F)(F)F)c1 (centres unmarked) [Example 72],1000 g/ha,,125 g/ha,1000 g/ha,500 g/ha,"* (Where herbicidal activity was evident but 80% inhibition was not achieved at the highest rate tested (typically 1000 g/ha), an asterisk (*) is shown)",250 g/ha,500 g/ha,phyto,phyto,"* (Where herbicidal activity was evident but 80% inhibition was not achieved at the highest rate tested (typically 1000 g/ha), an asterisk (*) is shown)",500 g/ha,500 g/ha,phyto,1000 g/ha,250 g/ha
Cc1ccccc1C(=O)NC(C)CNC(=O)c1cccc(C(F)(F)F)c1 (centres unmarked) [Example 109],phyto,750 g/ha,250 g/ha,500 g/ha,750 g/ha,phyto,750 g/ha,750 g/ha,phyto,1000 g/ha,"* (Where herbicidal activity was evident but 80% inhibition was not achieved at the highest rate tested (typically 1000 g/ha), an asterisk (*) is shown)",750 g/ha,750 g/ha,,"* (Where herbicidal activity was evident but 80% inhibition was not achieved at the highest rate tested (typically 1000 g/ha), an asterisk (*) is shown)",250 g/ha

# — US20020052295A1, “Diacyl derivatives of propylene diamine having herbicidal activity” (priority 1999, published 2002)
